Test results: US20240245711A1, “A 19-NOR C3,3-DISUBSTITUTED C21-N-PYRAZOLYL STEROID FOR THE TREATMENT OF MAJOR DEPRESSIVE DISORDER” (Sage Therapeutics, Inc., priority 2021, published 2024)

Legend:
[1] = test system: patients with MDD and metabolic comorbidities; experiment: Post hoc analysis of the Example 1 study: patients with MDD and metabolic comorbidities; assay type: in vivo, human
Experimental: Patients with MDD who have metabolic comorbidities face additional adverse events associated with antidepressants (e.g., weight gain, metabolic abnormalities) and often respond poorly. This example presents results from a post hoc analysis of clinical study of Example 1 in patients with MDD and metabolic comorbidities.
The clinical study of Example 1 enrolled patients with MDD, aged 18-75 years, with HAMD-17 score ≥20 and a MADRS total score ≥28 to 1 of 2 cohorts: 30 mg Cohort and 50 mg Cohort. HAMD-17 responders (≥50% reduction from baseline) at Day 15 continued in study and were assessed for retreatment eligibility.
Patients with a metabolic comorbidity were identified by the following coded terms in patient history: obesity, hyperlipidemia, hypercholesterolemia, type-2 diabetes mellitus, type-1 diabetes mellitus, glucose tolerance impaired, hypertriglyceridemia, dyslipidemia, metabolic syndrome, and/or diabetic dyslipidemia.

[2] = test system: post-menopausal women with MDD; experiment: Post hoc analysis of the Example 1 study: post-menopausal women with MDD; assay type: in vivo, human
From the text: Hormonal changes during early menopause can often affect the metabolism of antidepressants (ADTs). Postmenopausal/older women may not respond well to ADTs. This example presents a post hoc analysis of the study described in Example 1 in post-menopausal women with MDD.
The study described in Example 1 enrolled patients with MDD, aged 18-75 years, with HAMD-17≥20 and a MADRS total score ≥28 to 1 of 2 cohorts: 30-mg Cohort and 50-mg Cohort. HAMD-17 responders (≥50% reduction from baseline) at Day 15 continued in study and were assessed for repeat-treatment eligibility. Post-menopausal women aged ≥45 were identified based on follicle stimulating hormone >40 at baseline (central lab data) and if medical history coded terms contained ‘menopause’.

[3] = Day 15 of first treatment cycle, metabolic comorbidities subpopulation
[4] = metabolic comorbidities subpopulation
[5] = Day 15, post-menopausal patients

C[C@@]1(O)CC[C@H]2[C@H](CC[C@@H]3[C@@H]2CC[C@]2(C)[C@@H](C(=O)Cn4cc(C#N)cn4)CC[C@@H]32)C1 [Compound (1), 1-(2-((3R,5R,8R,9R,10S,13S,14S,17S)-3-hydroxy-3,13-dimethylhexadecahydro-1H-cyclopenta[a]phenanthren-17-yl)-2-oxoethyl)-1H-pyrazole-4-carbonitrile]
Patients not requiring additional treatment courses during their time in the study ([1]; 161/253 who responded to and completed the first treatment cycle): 55.9%
HAMD-17 remission rate [1, 3]: 37.1%
HAMD-17 response rate [1, 3]: 67.3%
Mean (SD) CFB in HAMD-17 [1, 3]: −14.8 (7.10)
TEAE diarrhea [1, 4]: 6.7%
TEAE dizziness [1, 4]: 9.1%
TEAE dry mouth [1, 4]: 5.5%
TEAE headache [1, 4]: 14.2%
TEAE sedation [1, 4]: 5.1%
TEAE somnolence [1, 4]: 13.8%
TEAE upper respiratory infection [1, 4]: 5.9%
TEAEs leading to discontinuation of study drug ([1]; metabolic comorbidities subpopulation (8/253)): 3.2%
TEAEs leading to withdrawal from the study ([1]; metabolic comorbidities subpopulation (11/253)): 4.3%
TEAEs leading to dose reduction ([1]; metabolic comorbidities subpopulation (19/253)): 7.5%
Share of patients with TEAEs that were mild/moderate ([1]; metabolic comorbidities subpopulation (148/167)): 88.6%
Patients with ≥1 TEAE over the study duration ([1]; metabolic comorbidities subpopulation (167/253)): 66.0%
Mean (range) number of total treatment courses ([1]; metabolic comorbidities subpopulation, first-cycle responders): 1.9 (1-5)
Tolerability ([1]; patients with MDD and metabolic comorbidities): generally well tolerated
Patients not requiring additional courses during their time in the study ([2]; 106/152 post-menopausal patients who responded to and completed treatment cycle 1): 42.5%
HAMD-17 remission rate [2, 5]: 39.6%
HAMD-17 response rate [2, 5]: 75.7%
Mean (SD) CFB in HAMD-17 [2, 5]: −16.0 (7.00)
TEAE diarrhea ([2]; post-menopausal patients): 7.9%
TEAE dizziness ([2]; post-menopausal patients): 11.8%
TEAE dry mouth ([2]; post-menopausal patients): 7.2%
TEAE headache ([2]; post-menopausal patients): 13.2%
TEAE insomnia ([2]; post-menopausal patients): 6.6%
TEAE sedation ([2]; post-menopausal patients): 6.6%
TEAE somnolence ([2]; post-menopausal patients): 12.5%
TEAE upper respiratory infection ([2]; post-menopausal patients): 7.9%
TEAEs leading to discontinuation of study drug ([2]; post-menopausal patients (8/152)): 5.3%
TEAEs leading to withdrawal from the study ([2]; post-menopausal patients (9/152)): 5.9%
TEAEs leading to dose reduction ([2]; post-menopausal patients (16/152)): 10.5%
Share of patients with TEAEs that were mild or moderate ([2]; post-menopausal patients (90/102)): 88.2%
Patients with at least 1 TEAE over the study duration ([2]; post-menopausal patients (102/152)): 67.1%
Mean (range) number of total treatment courses ([2]; post-menopausal patients, cycle 1 responders): 2.2 (1-5)
Tolerability ([2]; post-menopausal women): generally well-tolerated
